Literature values as cited in patent US8426470B2, “Method for alleviating signs and symptoms of spasticity” (Sun Pharmaceutical Industries Ltd., priority 2006, dated 2013).

Key:
spasticity = conditions: in vivo

SMILES: NCC(CC(=O)O)c1ccc(Cl)cc1 (centres unmarked) [Baclofen, 4-amino-3-(4-chlorophenyl)-butanoic acid]
- Plasma elimination half-life (in vivo): approximately 3.5 hours
- concentrations in the cerebrospinal fluid (CSF) relative to those in the plasma (in vivo): about 12%
- elimination half-life from the CSF (in vivo): 4 to 5 h
- fraction metabolized in the liver (remainder excreted mainly by the kidneys in unchanged form): 15%
- lowest concentration in plasma at which a significant reduction in spasticity was observed (spasticity): 90 ng/mL
